Results taken from patent US20240050406A1, “COMPOSITION COMPRISING OXIRACETAM FOR PREVENTING OR TREATING MUSCULAR DISEASE” (KSB TUGEN INC., priority 2021, published 2024).

Assays:
[1] = tested on: model of sarcopenia caused by aging; assay: Aging animal model, 24-month-old mice, oxiracetam per concentration (Experimental Example 3); type: in vivo, C57BL/6J mice
Source text: For an experimental group in the present invention, oxiracetam having a structure of Formula 1 was purchased from Tokyo Chemical Industry (Japan; Product No. 00398, CAS RN:62613-82-5, purity: 96%) and used.
As a model of sarcopenia caused by aging, 24-month-old male C57BL/6J mice were used. Until the day of the experiment, general feed (EEGJ30060: Cargill Agri Purina, Seongnam, Korea) and water were sufficiently supplied to the experimental animals, and the animals were acclimated for 1 week under an environment of a temperature of 23±2° C., a humidity of 55±10%, and a light-dark cycle of 12 hours-12 hours and used in the experiment.
The animals were randomly divided into groups of 10 animals, such as a control (vehicle, n=10), and 42, 83, 167, 333 mg/kg/day oxiracetam-administered groups (n=10 per concentration). To the oxiracetam-administered group, oxiracetam was orally administered using a Zonde needle for 93 days once a day at a dose of 42, 83, 167, or 333 mg/kg/day. During the same period, no drug was administered to the control group, and 100 μL of normal saline was orally administered at one time.
To measure grip strength, a grip strength test was performed. The maximum force presented when the forelimbs of an animal model of each group could no longer hold the rod by pulling the tail horizontally while holding the tail of the animal model and holding the rod of a device with both front paws was considered to be grip strength (N). The grip strength was measured once every 3 days, and after repeating five measurements at one time, the average value was shown. Grip strength adaptation training was performed at least three times before drug administration.
The lean body mass for the gastrocnemius muscle (GS) and tibialis anterior (TA) for each group was measured every 7 days. Specifically, animal models of each group were anesthetized using 3% isoflurane, fixed to a photographing bed, and then photographed. The respiration rates and temperatures of the animal models during photographing were measured using an animal monitoring system (SA Instruments, USA).
The whole body of the animal model was photographed through dual energy X-ray absorptiometry (DEXA) using iNSiGHT VET DXA (Osteosys, KR), and the lean body mass of each of the gastrocnemius muscle (GS) and the tibialis anterior (TA) was measured and calculated from the two-dimensional images of the gastrocnemius muscle (GS) and the tibialis anterior (TA) by a program using the region of interest (ROI).
Statistical processing was performed using GraphPad Prism (GraphPad Software Inc., San Diego, CA, USA). The results of each repeated experiment were expressed as mean±standard error of mean, and analyzed using the analysis of variance (Tukey's test), and statistical significance was acknowledged when the P-value was 0.05 or less.

[2] = tested on: DMD animal model; assay: Duchenne muscular dystrophy animal model (Experimental Example 6); type: in vivo, mice (C57BL/10 ScSn-Dmdmdx/J); conditions: mdx mice, oxiracetam 30 mg/kg oral daily 35 days
Experimental: As experimental animals, 23-week-old male mice (C57BL/10 ScSn-Dmdmdx/J) were purchased from the Jackson Laboratory (USA) to conduct experiments. All animals were maintained under conditions of a temperature of 23±2° C. and a relative humidity of 55±10%. Before the initiation of the experiment, a total of 20 mice were randomly divided into groups of 10 animals. After adaptation for 1 week, 30 mg/kg of oxiracetam of Example 1 was orally administered daily for 35 days (drug-administered group, oxiracetam). Here, for the control (vehicle), instead of a sample, normal saline was orally administered.
For statistical analysis of the experiment, significant differences in mean values between groups were confirmed using a paired t-test, and p<0.05 is denoted as *, p<0.01 is denoted as **, p<0.001 is denoted as ***, and no significant difference is denoted as N.S. An error bar represents S.E.M.
Total lean body mass, body fat content (fat, %), the lean body mass of the gastrocnemius muscle (GS), and the lean body mass of the tibialis anterior (TA) were analyzed by dual energy X-ray absorptiometry (DEXA) every 7 days from the first day (day 0) of oral administration. Specifically, animal models of each group were anesthetized using 3% isoflurane, fixed to a photographing bed and then photographed. During photographing, the respiratory rates and body temperatures of the animal models were measured with an animal monitoring system (SA Instruments, USA).
The whole body of the animal model was photographed through dual energy X-ray absorptiometry (DEXA) using iNSiGHT VET DXA (Osteosys, KR), and the total lean body mass and the body fat content (fat, %) were analyzed. In addition, from the photographed images, the two-dimensional images of the gastrocnemius muscle (GS) and the tibialis anterior (TA) were assigned to the region of interest (ROI) using a program, and the lean body mass of each of the gastrocnemius muscle (GS) and the tibialis anterior (TA) was measured and calculated. Since the DEXA image can be used to measure and analyze the lean body mass, fat, and bone density of a mouse, it is possible to measure and calculate not only detailed lean body mass but also total lean body mass and body fat content (fat, %).
Grip strength was measured every 2 days from the first day (day 0) of oral administration. The measurement of the grip strength was performed using a grip strength meter for mice (BIOSEB), a mouse was placed on a wire mesh attached to a gauge capable of monitoring the strength, and the tail of the mouse was pulled downward to measure a force of grabbing the wire mesh. The average value was recorded by repeating measurement five consecutive times.
Body weights were measured every day from the first day (day 0) of oral administration.

[3] = Oxi 42, 83, 167 and 333 mg/kg/day, DEXA every 7 days, compared to control
[4] = Oxi 333 group (333 mg/kg/day), among dose groups
[5] = day 35, compared to control (vehicle)

NC(=O)CN1CC(O)CC1=O (racemic) [oxiracetam, (RS)-2-(4-hydroxy-2-oxopyrrolidin-1-yl)acetamide]
dose dependence of the effect on grip strength ([1]; 42-333 mg/kg/day oral 93 days): increases in a concentration-dependent manner
change in grip strength (decrease in grip strength) ([1]; Oxi 42, 83, 167 and 333 mg/kg/day oral 93 days, versus control (vehicle)): significantly inhibited and rather increased
lean body mass of the gastrocnemius muscle (GS) [1, 3]: rather significantly increased
lean body mass of the tibialis anterior (TA) [1, 3]: rather significantly increased
lean body mass of the gastrocnemius muscle (GS) [1, 4]: greatest increase
lean body mass of the tibialis anterior (TA) [1, 4]: greatest increase
change in body weight [2]: does not exhibit a significant effect
change in grip strength [2]: significantly increased
pseudohypertrophy (characteristic symptom of DMD) [2]: reduced
lean body mass of the gastrocnemius muscle (GS) ([2]; compared to control): significantly increased
lean body mass of the tibialis anterior (TA) ([2]; compared to control): significantly increased
body fat mass (fat, %) [2, 5]: significantly reduced
total lean body mass [2, 5]: significantly increased
